Source: patent US5310930A, “Benzofuranylimidazole derivatives, a process for their preparation and therapeutical compositions containing the same” (priority 1991, dated 1994)
Like-named read-outs stand apart in the source and are kept apart here.

Tests used:
[1] = Indian J. Chem. 1979, 18B, 254; cited from earlier work
[2] = Indian J. Chem. 1979, 18B, 254; cited from earlier work; remark: listed apart in the source
alpha2-adrenoceptor = target: T1, alpha2-adrenoceptor (Rattus norvegicus, UniProt P22909); experiment: Displacement of 3H-clonidine (2 nM) (alpha2-adrenoceptor affinity); type: binding
T1 sequence (P22909 1-465): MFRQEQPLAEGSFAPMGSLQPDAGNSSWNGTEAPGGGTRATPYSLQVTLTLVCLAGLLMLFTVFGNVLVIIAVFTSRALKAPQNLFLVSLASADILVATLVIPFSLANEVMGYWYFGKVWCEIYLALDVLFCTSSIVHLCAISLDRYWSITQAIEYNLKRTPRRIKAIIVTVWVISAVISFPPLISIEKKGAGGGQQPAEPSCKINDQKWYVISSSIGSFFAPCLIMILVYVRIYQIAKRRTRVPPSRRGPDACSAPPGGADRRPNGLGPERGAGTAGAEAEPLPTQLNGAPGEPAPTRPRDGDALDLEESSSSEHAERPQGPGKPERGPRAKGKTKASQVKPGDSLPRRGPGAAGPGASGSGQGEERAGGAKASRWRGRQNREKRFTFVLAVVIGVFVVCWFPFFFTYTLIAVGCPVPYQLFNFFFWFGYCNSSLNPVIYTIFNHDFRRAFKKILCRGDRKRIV

rats = experiment: In vivo feeding behavior in rats (cumulative food intake after i.p. administration); parameters: species or system rat; details: for hyperphagic potency relative to idazoxan: 25 mg/kg i.p. versus idazoxan 10 mg/kg i.p.; for acute hyperphagic effect respect to the control group / cumulative food intake: rats; for acute hyperphagic effect respect to the control group: 1-4 h, P<0.05; for cumulative food intake: N=5
Excerpt: At present, certain compounds of the invention (Examples 1,2 and 3) have shown an in vivo CNS functional activity, such as: feeding behavior in rats.

[3] = target: imidazoline preferring receptor (IR); experiment: Displacement of 3H-idazoxan (4 nM) in the presence of (-)-adrenaline (IR affinity); type: binding, rat; details: for Ki: 3H-idazoxan (4 nM), (-)-adrenaline (10^-6 M), rat cerebral cortex, mean of 10 experiments; for Selectivity IR/α1: selectivity ratio for IR/alpha1 from Ki values; for Selectivity IR/α2: selectivity ratio for IR/alpha2 from Ki values
Procedure: (§1) Initial biological evaluation of alpha1 - and alpha2 -adrenoceptor and imidazoline preferring receptor (IR) affinities and selectivities in homogenized rat cerebral cortex were assessed by determining the Ki values of the compounds to displace ^3 H-prazosin ^3 H-clonidine as well as ^3 H-idazoxan in the presence of (-)-adrenaline according to the method of Olmos et al. (J. Neurochem. 1991, 57:1811-1813).
(§2) This in vitro model is particularly useful as an initial screening for studying the affinity and the selectivity of these compounds on the imidazoline receptors.

alpha1-adrenoceptor = experiment: Displacement of 3H-prazosin (0.5 nM) (alpha1-adrenoceptor affinity); type: binding; details: rat cerebral cortex, mean of 10 experiments
Procedure: as §1, §2

[4] = 3H-clonidine (2 nM), rat cerebral cortex, mean of 10 experiments, read-out: Affinity (Ki) Alpha2

| Ki [3] | Selectivity IR/α1 [3] | Selectivity IR/α2 [3] | Ki (alpha1-adrenoceptor) | Ki (alpha2-adrenoceptor; [4]) | Structure (SMILES) | hyperphagic potency relative to idazoxan (rats) | acute hyperphagic effect respect to the control group (rats; 25 mg/kg i.p.) | other results |
| --- | --- | --- | --- | --- | --- | --- | --- | --- |
| 0.015 µM | 1740 | 4140 | 26.2 µM | 62.1 µM | Cl.Cn1ccnc1-c1cc2ccccc2o1 [Example 2, 1-methyl-2-(benzofuran-2-yl)imidazole hydrochloride] | lower in potency than those induced by idazoxan | 7-10 fold | cumulative food intake (rats; 25 mg/kg i.p., 1 h): 2.7 ± 1.5 g/kg body weight; cumulative food intake (rats; 25 mg/kg i.p., 2 h): 3.0 ± 1.5 g/kg body weight; cumulative food intake (rats; 25 mg/kg i.p., 4 h): 3.6 ± 1.4 g/kg body weight; potency for the I2-imidazoline receptors relative to idazoxan ([3]; data derived from binding studies): equally as potent as idazoxan; selectivity relative to idazoxan ([3]; data derived from binding studies (Table 1)): much more selective |
| 0.151 µM | 118 | 372 | 17.8 µM | 56.1 µM | COc1ccc2cc(-c3ncc[nH]3)oc2c1.Cl [Example 3, 2-(6-methoxybenzofuran-2-yl)imidazole hydrochloride] | lower in potency than those induced by idazoxan | 7-10 fold |  |
| 0.117 µM | 284 | 584 | 33.3 µM | 68.4 µM | Brc1ccc2oc(-c3ncc[nH]3)cc2c1.Cl [Example 6, 2-(5-bromobenzofuran-2-yl)imidazole hydrochloride] |  |  |  |
| 0.163 µM | 27 | 605 | 4.41 µM | 98.7 µM | COc1ccc2oc(-c3ncc[nH]3)cc2c1.Cl [Example 7, 2-(5-methoxybenzofuran-2-yl)imidazole hydrochloride] |  |  |  |
| 0.123 µM | 184 | 580 | 22.6 µM | 71.3 µM | CCn1ccnc1-c1cc2ccc(OC)cc2o1.Cl [Example 9, 1-ethyl-2-(6-methoxybenzofuran-2-yl)imidazole hydrochloride] |  |  |  |

Further lines, the compound ahead of its results:

| Structure (SMILES) | Ki [3] | Selectivity IR/α1 [3] | Selectivity IR/α2 [3] | Ki (alpha1-adrenoceptor) | Ki (alpha2-adrenoceptor; [4]) | hyperphagic potency relative to idazoxan (rats) | acute hyperphagic effect respect to the control group (rats; 25 mg/kg i.p.) | other results |
| --- | --- | --- | --- | --- | --- | --- | --- | --- |
| c1ccc2oc(C3=NCCN3)cc2c1 |  |  |  |  |  |  |  | antibacterial activity [1]: without showing any noteworthy activity; antifungal activity [2]: without showing any noteworthy activity |
| Cl.c1ccc2oc(-c3ncc[nH]3)cc2c1 [Example 1, 2-(benzofuran-2-yl)imidazole hydrochloride] | 0.089 µM | 410 | 1 125 | 36.5 µM |  | lower in potency than those induced by idazoxan | 7-10 fold | Ki (alpha2-adrenoceptor): 100 µM; cumulative food intake (rats; 25 mg/kg i.p., 1 h): 3.0 ± 2.0 g/kg body weight; cumulative food intake (rats; 25 mg/kg i.p., 2 h): 4.0 ± 2.1 g/kg body weight; cumulative food intake (rats; 25 mg/kg i.p., 4 h): 4.8 ± 2.0 g/kg body weight |
| c1ccc2c(c1)OCC(C1=NCCN1)O2 (stereo not drawn) [Idazoxan, reference compound] | 0.014 µM |  |  | 0.091 µM |  |  |  | cumulative food intake (rats; 10 mg/kg i.p., 1 h): 3.7 ± 1.2 g/kg body weight; cumulative food intake (rats; 10 mg/kg i.p., 2 h): 5.6 ± 2.1 g/kg body weight; cumulative food intake (rats; 10 mg/kg i.p., 4 h): 7.4 ± 2.3 g/kg body weight |
| COC1(C2=NCCN2)COc2ccccc2O1 (stereo not drawn) [RX 821002, reference compound] | 44.9 µM |  | 0.00002 |  | 0.0007 µM |  |  |  |
